Values of other authors, collected in US20250032538A1, “METHOD AND COMPOSITION FOR RESTORING HOMEOSTASIS, TREATING, AND PREVENTING DEGENERATIVE DISEASES, ACHIEVING ANTI-AGING EFFECT” (Vector Vitale IP LLC, priority 2023, published 2025).
Like-named read-outs stand apart in the source and are kept apart here.

Legend:
[1] = tested on: rats
[2] = tested on: rats; details: rat, in vivo

Compound | half lethal dose (LD50) ([1]; intraperitoneal) [mg/kg] | half lethal dose (LD50) ([1]; oral administration) [mg/kg] | carcinogenicity: lung tumors [2]
[Cl-].[Cl-].[Cl-].[Sc+3] [scandium (III) chloride] | 4 | 755 | –
Titanium dioxide | – | – | increased lung tumors
